Measured values published in ChEMBL document CHEMBL2346553, “Synthesis and evaluation of non-dimeric HCV NS5A inhibitors” (Bioorg Med Chem Lett, 2013).
pEC50: −log10 of the molar value.

Tests used:
Hepatitis C virus = assay: microbe, parasite or virus in culture; conditions: genotype 1b, Huh-7
in vitro [1] = conditions: human, HuH7 cells
PBMC = conditions: human
CCRF-CEM = conditions: human
Vero = conditions: chlorocebus sabaeus
in vitro [2] = conditions: human, CEM cells
in vitro [3] = conditions: human, pbmc

Row | Structure (SMILES) | pEC50 (Hepatitis C virus) | EC90 (Hepatitis C virus) | CC50 (in vitro [1]) | CC50 (PBMC) | CC50 (CCRF-CEM) | CC50 (Vero) | CC50 (in vitro [2]) | CC50 (in vitro [3])
1 | COC(=O)N[C@H](C(=O)N1CCC[C@H]1c1ncc(-c2ccc(-c3ccc(-c4cnc([C@@H]5CCCN5C(=O)[C@@H](NC(=O)OC)C(C)C)[nH]4)cc3)cc2)[nH]1)C(C)C | 11.00 | 0.03 nM |  |  |  |  |  | 
2 | COC(=O)N[C@H](C(=O)N1CCC[C@H]1c1ncc(-c2ccccc2)[nH]1)C(C)C | < 6.00 |  | > 1000 nM | > 100 µM | > 100 µM | > 100 µM |  | 
3 | COC(=O)N[C@H](C(=O)N1CCC[C@H]1c1ncc(-c2ccc(Br)cc2)[nH]1)C(C)C | < 7.00 |  | > 1000 nM | > 100 µM | 50 µM | 48 µM |  | 
4 | COC(=O)N[C@H](C(=O)N1CCC[C@H]1c1ncc(-c2ccc(C#N)cc2)[nH]1)C(C)C | < 7.00 |  | > 1000 nM | > 100 µM | 98 µM | 33 µM |  | 
5 | COC(=O)N[C@H](C(=O)N1CCC[C@H]1c1ncc(-c2ccc([N+](=O)[O-])cc2)[nH]1)C(C)C | < 7.00 |  | > 1000 nM | > 100 µM | > 100 µM | > 100 µM |  | 
6 | COC(=O)N[C@H](C(=O)N1CCC[C@H]1c1ncc(-c2ccc(OC(F)(F)F)cc2)[nH]1)C(C)C | < 7.00 |  | > 1000 nM | 49 µM |  | 30 µM | > 100 µM | 
7 | COC(=O)N[C@H](C(=O)N1CCC[C@H]1c1ncc(-c2ccc(C(F)(F)F)cc2)[nH]1)C(C)C | < 7.00 |  | > 1000 nM |  |  | 26 µM | > 100 µM | > 100 µM
8 | COC(=O)N[C@H](C(=O)N1CCC[C@H]1c1ncc(-c2ccc(OC)cc2)[nH]1)C(C)C | < 6.00 |  | > 1000 nM | > 100 µM | > 100 µM | > 100 µM |  | 
9 | COC(=O)N[C@H](C(=O)N1CCC[C@H]1c1ncc(-c2ccc(C)cc2)[nH]1)C(C)C | < 6.00 |  | > 1000 nM | > 100 µM | > 100 µM | > 100 µM |  | 
10 | COC(=O)N[C@H](C(=O)N1CCC[C@H]1c1ncc(-c2ccc(-c3ccccc3)cc2)[nH]1)C(C)C | 6.52 | 900 nM | > 1000 nM | 14 µM | 70 µM | 18 µM |  | 
11 | COC(=O)N[C@@H](CC(C)C)C(=O)N1CCC[C@H]1c1ncc(-c2ccc(-c3ccccc3)cc2)[nH]1 | < 7.00 | > 1000 nM | > 1000 nM | 16 µM | 61 µM | 25 µM |  | 
12 | C[C@H](NC(=O)OC(C)(C)C)C(=O)N1CCC[C@H]1c1ncc(-c2ccc(-c3ccccc3)cc2)[nH]1 | < 6.00 |  | > 1000 nM | 16 µM | 11 µM | 13 µM |  | 
13 | C=CC[C@H](NC(C)=O)C(=O)N1CCC[C@H]1c1ncc(-c2ccc(-c3ccccc3)cc2)[nH]1 | < 6.00 |  | > 1000 nM | 100 µM | 73 µM | 21 µM |  | 
14 | COC(=O)N[C@H](C(=O)N1CCC[C@H]1c1ncc(-c2ccc(Cl)cc2Cl)[nH]1)C(C)C | 6.00 |  | > 1000 nM | 56 µM |  | 15 µM | > 100 µM | 
15 | COC(=O)N[C@H](C(=O)N1CCC[C@H]1c1ncc(-c2ccc(S(=O)(=O)c3ccccc3)cc2)[nH]1)C(C)C | < 7.00 |  | > 1000 nM | > 100 µM | > 100 µM | > 100 µM |  | 
16 | COC(=O)N[C@H](C(=O)N1CCC[C@H]1c1nc(Cl)c(-c2ccc(N=[N+]=[N-])cc2)[nH]1)C(C)C | 8.40 | 14 nM | > 1000 nM | 94 µM |  | 12 µM | > 100 µM | 
17 | COC(=O)N[C@H](C(=O)N1CCC[C@H]1c1nc(I)c(-c2ccc(N=[N+]=[N-])cc2)[nH]1)C(C)C | 8.70 | 3 nM | > 1000 nM | 64.2 µM |  | 14.2 µM | > 100 µM | 
18 | COC(=O)N[C@H](C(=O)N1CCC[C@H]1c1ncc(-c2ccc(-c3ccc(C#N)cc3)cc2)[nH]1)C(C)C | < 7.00 |  | > 1000 nM | > 100 µM | 98 µM | 33 µM |  | 
19 | COC(=O)N[C@H](C(=O)N1CCC[C@H]1c1ncc(-c2ccc(-c3ccc(C)cc3)cc2)[nH]1)C(C)C | < 7.00 |  | > 1000 nM | 90 µM | 16 µM | 14 µM |  | 
20 | COC(=O)N[C@H](C(=O)N1CCC[C@H]1c1ncc(-c2ccc(-c3cccc(O)c3)cc2)[nH]1)C(C)C | < 6.00 |  | > 1000 nM |  |  | 50 µM | > 100 µM | > 100 µM
21 | COC(=O)N[C@H](C(=O)N1CCC[C@H]1c1ncc(-c2ccc(-c3ccc(OC)cc3)cc2)[nH]1)C(C)C | < 7.00 |  | > 1000 nM | 85 µM | 30 µM | 13 µM |  | 
22 | COC(=O)N[C@H](C(=O)N1CCC[C@H]1c1ncc(-c2ccc(-c3ccc(C(N)=O)cc3)cc2)[nH]1)C(C)C | 7.68 | 76 nM | > 1000 nM | > 100 µM | > 100 µM | > 100 µM |  | 
23 | COC(=O)N[C@H](C(=O)N1CCC[C@H]1c1ncc(-c2ccc(-c3ccc(C(=O)OC)cc3)cc2)[nH]1)C(C)C | < 7.00 |  | > 1000 nM | 14 µM | 61 µM | 17 µM |  | 
24 | COC(=O)N[C@H](C(=O)N1CCC[C@H]1c1ncc(-c2ccc(-c3ccc(S(C)(=O)=O)cc3)cc2)[nH]1)C(C)C | < 7.00 |  | > 1000 nM | > 100 µM | 54 µM | 6 µM |  | 
25 | COC(=O)N[C@H](C(=O)N1CCC[C@H]1c1ncc(-c2ccc(-c3ccc(N=[N+]=[N-])cc3)cc2)[nH]1)C(C)C | < 7.00 |  | > 1000 nM | 37 µM | 11 µM | 11 µM |  | 
26 | COC(=O)N[C@H](C(=O)N1CCC[C@H]1c1nc(Cl)c(-c2ccc(-c3ccc(C(F)(F)F)cc3)cc2)[nH]1)C(C)C | < 7.00 |  | > 1000 nM | 11 µM | 10 µM | 10 µM |  | 
27 | COC(=O)N[C@H](C(=O)N1CCC[C@H]1c1ncc(-c2ccc(N)cc2)[nH]1)C(C)C | 6.70 | 300 nM | > 1000 nM | > 100 µM | > 100 µM | > 100 µM |  | 
28 | COC(=O)Nc1ccc(-c2cnc([C@@H]3CCCN3C(=O)[C@@H](NC(=O)OC)C(C)C)[nH]2)cc1 | < 7.00 |  | > 1000 nM | > 100 µM | > 100 µM | > 100 µM |  | 
29 | COC(=O)N[C@H](C(=O)N1CCC[C@H]1c1ncc(-c2ccc(NS(C)(=O)=O)cc2)[nH]1)C(C)C | < 7.00 |  | > 1000 nM |  |  | 13 µM | > 100 µM | > 100 µM
